Source: paper PMC7031696 (Cell chemical biology, 2019)
Where two headings read alike, the source gives them in different places.

Assays:
[1] = system: Plasmodium falciparum 3D7-A10 parasites; assay: Stage specificity assay (8-h exposure of synchronized stages, IC50^8h); assay type: cell-based; details: for IC50: Plasmodium falciparum
[2] = system: 3D7-MR4 trophozoite parasite-infected RBCs; assay: Metabolomic profiling (hydrophilic metabolite changes, UHPLC-MS); assay type: cell-based, Plasmodium falciparum
[3] = system: synchronized Plasmodium falciparum parasites; assay: Microscopical study of cell morphology after 8-h exposures (Figure S4); assay type: cell-based; details: 3× the IC50^8h of the most sensitive life stage, 8-h intervals
[4] = system: 3D7-A10 or Dd2-B2 parasites; assay: Resistance selections (single step, pulsing or ramping); assay type: cell-based, Plasmodium falciparum
[5] = system: asynchronous 3D7-A10 parasite cultures; assay: Standard 72-h exposure asexual blood stage susceptibility assay (IC50^72h); assay type: cell-based, Plasmodium falciparum; details: Plasmodium falciparum, 3D7, 72 h, read-out: Overall (72hr assay) Mean IC50 (IC50^72h)
[6] = 10 × IC50^72h, 2.5 hr, trophozoites

CC(C)(C)OC(=O)N1CCN(c2ccccc2NC(=O)c2cccc(C(F)(F)F)c2Oc2ccc(F)cc2)CC1 [MMV030666]
Ratio lowest IC50 8hr/IC50 72hr ([1]; 3D7-A10): 1.9 | killing in stage specificity assay ([1]; 8-h exposures, survival curves): incomplete killing | IC50 ([1]; 3D7, read-out: Early rings Mean IC50 (IC50^8h), 8-h exposure 0–8 hr, 3D7-A10, survival at 60 h): 10.3 µM | IC50 ([1]; 3D7, read-out: Early trophozoites Mean IC50 (IC50^8h), 8-h exposure 16–24 hr, 3D7-A10, survival at 60 h): 5.12 µM | IC50 ([1]; 3D7, read-out: Late rings Mean IC50 (IC50^8h), 8-h exposure 8–16 hr, 3D7-A10, survival at 60 h): 11.4 µM | IC50 ([1]; 3D7, read-out: Late trophozoites Mean IC50 (IC50^8h), 8-h exposure 24–32 hr, 3D7-A10, survival at 60 h): 0.858 µM | IC50 ([1]; 3D7, read-out: Schizonts Mean IC50 (IC50^8h), 8-h exposure 32–40 hr, 3D7-A10, survival at 60 h): 4.19 µM | Stage of peak activity (Figure 6) ([1]; period when the parasite was most susceptible (lowest IC50^8h)): late trophozoites | Peak Activity (Table S1) ([1]; stage(s) with the lowest IC50^8h): Late Trophs | metabolic signature: increases in the pyrimidine precursors dihydroorotate and N-carbamoyl-L-aspartate (mETC disruption) [2, 6]: observed | orotidine 5-P levels [2, 6]: decreased | peptide levels (hemoglobin catabolism signature) [2, 6]: decreased peptide levels | Log2(fold changes) 3-phosphoglycerate ([2]; metabolite 3-phosphoglycerate, log2 fold change): 0.0028 | Log2(fold changes) 4-Pyridoxic acid ([2]; metabolite 4-Pyridoxic acid, log2 fold change): -0.4279 | Log2(fold changes) 4-aminobutyrate ([2]; metabolite 4-aminobutyrate, log2 fold change): -0.0634 | Log2(fold changes) 4-phosphopantetheine ([2]; metabolite 4-phosphopantetheine, log2 fold change): -0.3320 | Log2(fold changes) 4-phosphopantothenate ([2]; metabolite 4-phosphopantothenate, log2 fold change): -1.0807 | Log2(fold changes) 5-aminopentanoic acid ([2]; metabolite 5-aminopentanoic acid, log2 fold change): 0.0000 | Log2(fold changes) 5-methyl-THF ([2]; metabolite 5-methyl-THF, log2 fold change): 0.0000 | Log2(fold changes) 5-phosphoribosyl-1-pyrophosphate ([2]; metabolite 5-phosphoribosyl-1-pyrophosphate, log2 fold change): -0.6917 | Log2(fold changes) 6-phospho-D-gluconate ([2]; metabolite 6-phospho-D-gluconate, log2 fold change): -0.3165 | Log2(fold change) HVDD ([2]; metabolite HVDD): -4.9061 | Log2(fold change) Hydroxyisocaproic acid ([2]; metabolite Hydroxyisocaproic acid): 0.0000 | Log2(fold change) IDP ([2]; metabolite IDP): 0.0000 | Log2(fold change) IMP ([2]; metabolite IMP): 0.0932 | Log2(fold change) Inositol ([2]; metabolite Inositol): 0.0000 | Log2(fold change) Isopentyl-PP ([2]; metabolite Isopentyl-PP): 0.0000 | Log2(fold change) L-arginino-succinate ([2]; metabolite L-arginino-succinate): -1.0911 | Log2(fold change) LD ([2]; metabolite LD): -0.6358 | Log2(fold change) Myristoyl/tetradecanoyl-CoA ([2]; metabolite Myristoyl/tetradecanoyl-CoA): 0.0000 | Log2(fold change) N-Acetyl-L-alanine ([2]; metabolite N-Acetyl-L-alanine): -0.5215 | Log2(fold change) N-acetyl-L-ornithine ([2]; metabolite N-acetyl-L-ornithine): 0.0000 | Log2(fold change) N-acetyl-glucosamine-1/6-phosphate ([2]; metabolite N-acetyl-glucosamine-1/6-phosphate): -0.1279 | Log2(fold change) N-acetyl-glutamate ([2]; metabolite N-acetyl-glutamate): 0.2373 | Log2(fold change) N-acetyl-glutamine ([2]; metabolite N-acetyl-glutamine): -0.0526 | Log2(fold change) N-carbamoyl-L-aspartate ([2]; metabolite N-carbamoyl-L-aspartate): 1.9816 | Log2(fold change) NAD+ ([2]; metabolite NAD+): -0.1975 | Log2(fold change) NADH ([2]; metabolite NADH): 1.6901 | Log2(fold change) NADP+ ([2]; metabolite NADP+): -0.2280 | Log2(fold change) NADPH ([2]; metabolite NADPH): 1.2462 | Log2(fold change) O-acetyl-L-serine ([2]; metabolite O-acetyl-L-serine): 0.0000 | Log2(fold change) Octoluse 8/1P ([2]; metabolite Octoluse 8/1P): 0.2225 | Log2(fold change) Octoluse Bisphosphate ([2]; metabolite Octoluse Bisphosphate): -1.0839 | Log2(fold change) PD ([2]; metabolite PD): -3.4872 | Log2(fold change) PE ([2]; metabolite PE): -3.3751 | Log2(fold change) PEE ([2]; metabolite PEE): -2.7815 | Log2(fold change) PEEK ([2]; metabolite PEEK): -2.6677 | Log2(fold change) PVNF ([2]; metabolite PVNF): -4.4222 | Log2(fold change) Pyroglutamic acid ([2]; metabolite Pyroglutamic acid): 0.3360 | Log2(fold change) Pyrophosphate ([2]; metabolite Pyrophosphate): 0.0000 | Log2(fold change) Ribose-5-phosphate ([2]; metabolite Ribose-5-phosphate): -0.7810 | Log2(fold change) S-adenosyl-L-homocysteine ([2]; metabolite S-adenosyl-L-homocysteine): 0.2136 | Log2(fold change) S-adenosyl-L-methioninamine ([2]; metabolite S-adenosyl-L-methioninamine): 0.0000 | Log2(fold change) S-adenosyl-L-methionine ([2]; metabolite S-adenosyl-L-methionine): 0.0000 | Log2(fold change) S-methyl-5'-thioadenosine ([2]; metabolite S-methyl-5'-thioadenosine): 0.3369 | Log2(fold change) SD ([2]; metabolite SD): -2.5205 | Log2(fold change) SDL ([2]; metabolite SDL): -4.4795 | Log2(fold change) SID ([2]; metabolite SID): 0.0000 | Log2(fold change) Sedoheptulose bisphosphate ([2]; metabolite Sedoheptulose bisphosphate): -0.5250 | Log2(fold change) Thiamine pyrophosphate ([2]; metabolite Thiamine pyrophosphate): -0.1162 | Log2(fold changes) UDP-D-glucose ([2]; metabolite UDP-D-glucose, log2 fold change): -0.1835 | Log2(fold changes) UDP-D-glucuronate ([2]; metabolite UDP-D-glucuronate, log2 fold change): -0.4871 | Log2(fold changes) UDP-N-acetyl-glucosamine ([2]; metabolite UDP-N-acetyl-glucosamine, log2 fold change): -0.5093 | Log2(fold changes) UDP ([2]; metabolite UDP, log2 fold change): -1.4928 | Log2(fold changes) UMP ([2]; metabolite UMP, log2 fold change): -0.5598 | Log2(fold changes) UTP ([2]; metabolite UTP, log2 fold change): -1.9407 | Log2(fold change) hydroxyphenylpyruvate ([2]; metabolite hydroxyphenylpyruvate): 0.0000 | Log2(fold change) hydroxyproline/Aminolevulinate ([2]; metabolite hydroxyproline/Aminolevulinate): -0.0744 | Log2(fold change) hypoxanthine ([2]; metabolite hypoxanthine): 0.1169 | Log2(fold change) indole ([2]; metabolite indole): 0.3440 | Log2(fold change) inosine ([2]; metabolite inosine): -0.2932 | Log2(fold change) isoleucine ([2]; metabolite isoleucine): -0.1542 | Log2(fold change) lactate ([2]; metabolite lactate): -0.3562 | Log2(fold change) leucine ([2]; metabolite leucine): -0.3099 | Log2(fold change) lysine ([2]; metabolite lysine): 0.0000 | Log2(fold change) malate ([2]; metabolite malate): -1.0993 | Log2(fold change) maleic acid ([2]; metabolite maleic acid): -0.3336 | Log2(fold change) methionine ([2]; metabolite methionine): -0.1260 | Log2(fold change) myo-inositol ([2]; metabolite myo-inositol): 0.0000 | Log2(fold change) nicotinamide mononucleotide ([2]; metabolite nicotinamide mononucleotide): 0.0000 | Log2(fold change) nicotinate ([2]; metabolite nicotinate): -0.1069 | Log2(fold change) ornithine ([2]; metabolite ornithine): 0.0000 | Log2(fold change) orotate ([2]; metabolite orotate): -0.1643 | Log2(fold change) orotidine-5'-phosphate ([2]; metabolite orotidine-5'-phosphate): -1.8500 | Log2(fold change) oxaloacetate ([2]; metabolite oxaloacetate): 0.0000 | Log2(fold change) p-aminobenzoate ([2]; metabolite p-aminobenzoate): 0.0000 | Log2(fold change) p-hydroxybenzoate ([2]; metabolite p-hydroxybenzoate): 0.0000 | Log2(fold change) pantothenate ([2]; metabolite pantothenate): -0.0587 | Log2(fold change) phenylalanine ([2]; metabolite phenylalanine): -0.5281 | Log2(fold change) phenylpyruvate ([2]; metabolite phenylpyruvate): 0.0000 | Log2(fold change) phosphoenolpyruvate ([2]; metabolite phosphoenolpyruvate): 0.0797 | Log2(fold change) prephenate ([2]; metabolite prephenate): 0.0000 | Log2(fold change) proline ([2]; metabolite proline): -0.4182 | Log2(fold change) pyridoxine ([2]; metabolite pyridoxine): 0.0000 | Log2(fold change) pyruvate ([2]; metabolite pyruvate): -1.3359 | Log2(fold change) riboflavin ([2]; metabolite riboflavin): -0.6446 | Log2(fold change) ribose ([2]; metabolite ribose): 0.0000 | Log2(fold change) ribose-phosphate ([2]; metabolite ribose-phosphate): 0.0000 | Log2(fold change) ribulose-5-phosphate ([2]; metabolite ribulose-5-phosphate): -0.3252 | Log2(fold change) serine ([2]; metabolite serine): -0.1988 | Log2(fold change) sn-glycerol-3-phosphate ([2]; metabolite sn-glycerol-3-phosphate): 0.6292 | Log2(fold change) succinate/Methylmalonic acid ([2]; metabolite succinate/Methylmalonic acid): -1.4071 | Log2(fold change) succinyl-CoA/methylmalonyl-CoA ([2]; metabolite succinyl-CoA/methylmalonyl-CoA): -0.7249 | Log2(fold change) taurine ([2]; metabolite taurine): 0.0000 | Log2(fold change) thiamine ([2]; metabolite thiamine): 0.0000 | Log2(fold change) threonine/homoserine ([2]; metabolite threonine/homoserine): -0.8029 | Log2(fold change) thymidine ([2]; metabolite thymidine): 0.0000 | Log2(fold changes) thymine ([2]; metabolite thymine, log2 fold change): 0.0000 | Log2(fold changes) trehalose-6-Phosphate ([2]; metabolite trehalose-6-Phosphate, log2 fold change): 0.0000 | Log2(fold changes) tryptophan ([2]; metabolite tryptophan, log2 fold change): 0.1993 | Log2(fold changes) tyrosine ([2]; metabolite tyrosine, log2 fold change): -0.2219 | Log2(fold changes) uridine ([2]; metabolite uridine, log2 fold change): 0.0000 | digestive vacuole morphology [3]: bloated digestive vacuoles | most susceptible stage by cell morphology [3]: late trophozoite stage | outcome of ramping resistance selection ([4]; 3D7-A10, 1 × to 1.8 × IC50^72h over 3 months): did not produce resistance | outcome of resistance selections (continuous exposure or pulsing) ([4]; 5 × 10^8 to 1 × 10^9 3D7-A10 or Dd2-B2 parasites, 3–6 × IC50^72h): failed to yield resistance | minimum inocula of resistance ([4]; from failed selections in 3D7-A10 / Dd2-B2): above 5 × 10^8 parasites | IC50 [5]: 0.462 µM
